Laboratory results as given in paper PMC6222422, “Synthesis and Biological Evaluation of Novel Indole-Derived Thioureas” (Molecules : A Journal of Synthetic Chemistry and Natural …, 2018).
Converted amounts (≈) assume the structure as drawn.

Columns and labels:
VV = test: microbe, parasite or virus in culture; format: cell-based; details: Orthopoxvirus vaccinia, Vero 76, read-out: VV EC50
S. aureus NCTC 4163 [1] = test: MIC, twofold serial agar dilution; format: cell-based; details: Staphylococcus aureus, NCTC4163, 18 h, 35 °C, read-out: minimal inhibitory concentrations (MIC)
M. luteus ATCC 10240 [2] = test: disc diffusion method; format: cell-based, Micrococcus luteus; details: Micrococcus luteus, ATCC10240, applied 400 µg per disc, dash = lack of the growth inhibition area, read-out: diameter of growth inhibitory zone (GIZ)
S. aureus ATCC 29213 [3] = test: disc diffusion method; format: cell-based, Staphylococcus aureus; details: Staphylococcus aureus, ATCC29213, applied 400 µg per disc, dash = lack of the growth inhibition area, read-out: diameter of growth inhibitory zone (GIZ)
B. subtilis ATCC 6633 = test: disc diffusion method; format: cell-based, Bacillus subtilis; details: Bacillus subtilis, ATCC6633, applied 400 µg per disc, dash = lack of the growth inhibition area, read-out: diameter of growth inhibitory zone (GIZ)
YFV = test: microbe, parasite or virus in culture; format: cell-based; details: Yellow fever virus, BHK, read-out: YFV EC50
S. aureus NCTC 4163 [4] = test: disc diffusion method; format: cell-based, Staphylococcus aureus; details: Staphylococcus aureus, NCTC4163, applied 400 µg per disc, dash = lack of the growth inhibition area, read-out: diameter of growth inhibitory zone (GIZ)
S. aureus ATCC 25923 [5] = test: disc diffusion method; format: cell-based, Staphylococcus aureus; details: Staphylococcus aureus, ATCC25923, applied 400 µg per disc, dash = lack of the growth inhibition area, read-out: diameter of growth inhibitory zone (GIZ)
HSV-1 = test: microbe, parasite or virus in culture; format: cell-based, human herpes 1; details: Human alphaherpesvirus 1, Vero 76, read-out: HSV-1 EC50
[6] = test system: hospital methicillin-susceptible strains of S. aureus (MSSA); test: MIC against hospital strains; details: Staphylococcus aureus
[7] = test system: S. epidermidis ATCC 12228; test: disc diffusion method; format: cell-based, Staphylococcus epidermidis; details: Staphylococcus epidermidis, ATCC12228, applied 400 µg per disc, dash = lack of the growth inhibition area, read-out: diameter of growth inhibitory zone (GIZ)
HIV-1 = test: microbe, parasite or virus in culture; details: Human immunodeficiency virus 1, MT4, read-out: HIV-1 EC50
S. aureus ATCC 6538 = test: MIC, twofold serial agar dilution; format: cell-based; details: Staphylococcus aureus, ATCC6538, 18 h, 35 °C, read-out: minimal inhibitory concentrations (MIC)
in vitro [8] = details: Syrian hamster (Mesocricetus auratus)
Sb-1 = test: microbe, parasite or virus in culture; format: cell-based, poliovirus type-1; details: Enterovirus C, Vero 76, read-out: Sb-1 EC50
S. epidermidis (MRSE) = test: MIC against hospital strains; details: Staphylococcus epidermidis
B. cereus ATCC 11778 [9] = test: MIC, twofold serial agar dilution; format: cell-based; details: Bacillus cereus, ATCC11778, 18 h, 35 °C, read-out: minimal inhibitory concentrations (MIC)
M. luteus ATCC 10240 [10] = test: MIC, twofold serial agar dilution; format: cell-based; details: Micrococcus luteus, ATCC10240, 18 h, 35 °C, read-out: minimal inhibitory concentrations (MIC)
BVDV = test: microbe, parasite or virus in culture; format: cell-based, bovine viral diarrhoea virus; details: Bovine viral diarrhea virus isolates and strains, MDBK, in Bos taurus, read-out: BVDV EC50
in vitro [11] = details: African green monkey (Cercopithecus aethiops)
CV-B5 = test: microbe, parasite or virus in culture; format: cell-based, coxsackievirus B5; details: Enterovirus B, CVB5, Vero 76, read-out: CV-B5 EC50
[12] = test system: methicillin-resistant strains of S. aureus (MRSA); test: MIC against hospital strains; details: Staphylococcus aureus
in vitro [13] = details: cattle (Bos taurus)
S. aureus ATCC 29213 [14] = test: MIC, twofold serial agar dilution; format: cell-based; details: Staphylococcus aureus, ATCC29213, 18 h, 35 °C, read-out: minimal inhibitory concentrations (MIC)
S. aureus ATCC 25923 [15] = test: MIC, twofold serial agar dilution; format: cell-based; details: Staphylococcus aureus, ATCC25923, 18 h, 35 °C, read-out: minimal inhibitory concentrations (MIC)
[16] = test system: S. epidermidis ATCC 12228; test: MIC, twofold serial agar dilution; format: cell-based; details: Staphylococcus epidermidis, ATCC12228, 18 h, 35 °C, read-out: minimal inhibitory concentrations (MIC)
B. cereus ATCC 11778 [17] = test: disc diffusion method; format: cell-based, Bacillus cereus; details: Bacillus cereus, ATCC11778, applied 400 µg per disc, dash = lack of the growth inhibition area, read-out: diameter of growth inhibitory zone (GIZ)

Which results are given for `S=C(NCCc1c[nH]c2ccccc12)Nc1ccc(Cl)c(Cl)c1` [Compound 6, 1-(2-(1H-indol-3-yl)ethyl)-3-(3,4-dichlorophenyl)thiourea]?
EC50 (VV): > 13 µM; MIC (S. aureus NCTC 4163 [1]): 6.25 µg/mL (≈ 17.2 µM); zone of inhibition at 400 µg/disc (M. luteus ATCC 10240 [2]): 23 mm; zone of inhibition at 400 µg/disc (S. aureus ATCC 29213 [3]): 15 mm; zone of inhibition at 400 µg/disc (B. subtilis ATCC 6633): 15 mm; EC50 (YFV): > 10 µM; zone of inhibition at 400 µg/disc (S. aureus NCTC 4163 [4]): 10 mm; zone of inhibition at 400 µg/disc (S. aureus ATCC 25923 [5]): 15 mm; EC50 (HSV-1): > 13 µM; MIC ([6]; hospital S. aureus MSSA strain 440/11): 6.25 µg/mL (≈ 17.2 µM); MIC ([6]; hospital S. aureus MSSA strain 441/11): 6.25 µg/mL (≈ 17.2 µM); MIC ([6]; hospital S. aureus MSSA strain 442/11): 6.25 µg/mL (≈ 17.2 µM); MIC ([6]; hospital S. aureus MSSA strain 443/11): 6.25 µg/mL (≈ 17.2 µM); MIC ([6]; hospital S. aureus MSSA strain 444/11): 6.25 µg/mL (≈ 17.2 µM); MIC ([6]; hospital S. aureus MSSA strain 445/11): 6.25 µg/mL (≈ 17.2 µM); MIC ([6]; hospital S. aureus MSSA strain 446/11): 6.25 µg/mL (≈ 17.2 µM); MIC ([6]; hospital S. aureus MSSA strain 447/11): 6.25 µg/mL (≈ 17.2 µM); MIC ([6]; hospital S. aureus MSSA strain 448/11): 6.25 µg/mL (≈ 17.2 µM); MIC ([6]; hospital S. aureus MSSA strain 449/11): 6.25 µg/mL (≈ 17.2 µM); zone of inhibition at 400 µg/disc [7]: 16 mm; EC50 (HIV-1): > 45 µM; MIC (S. aureus ATCC 6538): 12.5 µg/mL (≈ 34.3 µM); CC50 (in vitro [8]): 10 µM; EC50 (Sb-1): > 13 µM; MIC (S. epidermidis (MRSE); hospital S. epidermidis MRSE strain 430/11): 6.25 µg/mL (≈ 17.2 µM); MIC (S. epidermidis (MRSE); hospital S. epidermidis MRSE strain 431/11): 6.25 µg/mL (≈ 17.2 µM); MIC (S. epidermidis (MRSE); hospital S. epidermidis MRSE strain 432/11): 6.25 µg/mL (≈ 17.2 µM); MIC (S. epidermidis (MRSE); hospital S. epidermidis MRSE strain 433/11): 6.25 µg/mL (≈ 17.2 µM); MIC (S. epidermidis (MRSE); hospital S. epidermidis MRSE strain 434/11): 12.5 µg/mL (≈ 34.3 µM); MIC (S. epidermidis (MRSE); hospital S. epidermidis MRSE strain 435/11): 6.25 µg/mL (≈ 17.2 µM); MIC (S. epidermidis (MRSE); hospital S. epidermidis MRSE strain 436/11): 6.25 µg/mL (≈ 17.2 µM); MIC (S. epidermidis (MRSE); hospital S. epidermidis MRSE strain 437/11): 6.25 µg/mL (≈ 17.2 µM); MIC (S. epidermidis (MRSE); hospital S. epidermidis MRSE strain 438/11): 6.25 µg/mL (≈ 17.2 µM); MIC (S. epidermidis (MRSE); hospital S. epidermidis MRSE strain 439/11): 6.25 µg/mL (≈ 17.2 µM); MIC (B. cereus ATCC 11778 [9]): 6.25 µg/mL (≈ 17.2 µM); MIC (M. luteus ATCC 10240 [10]): 6.25 µg/mL (≈ 17.2 µM); EC50 (BVDV): > 27 µM; CC50 (in vitro [11]): 13 µM; EC50 (CV-B5): > 13 µM; MIC ([12]; hospital S. aureus MRSA strain 389/10): 6.25 µg/mL (≈ 17.2 µM); MIC ([12]; hospital S. aureus MRSA strain 390/10): 6.25 µg/mL (≈ 17.2 µM); MIC ([12]; hospital S. aureus MRSA strain 391/10): 6.25 µg/mL (≈ 17.2 µM); MIC ([12]; hospital S. aureus MRSA strain 392/10): 6.25 µg/mL (≈ 17.2 µM); MIC ([12]; hospital S. aureus MRSA strain 393/10): 6.25 µg/mL (≈ 17.2 µM); MIC ([12]; hospital S. aureus MRSA strain 394/10): 6.25 µg/mL (≈ 17.2 µM); MIC ([12]; hospital S. aureus MRSA strain 399/10): 6.25 µg/mL (≈ 17.2 µM); MIC ([12]; hospital S. aureus MRSA strain 450/11): 6.25 µg/mL (≈ 17.2 µM); MIC ([12]; hospital S. aureus MRSA strain 451/11): 6.25 µg/mL (≈ 17.2 µM); MIC ([12]; hospital S. aureus MRSA strain 452/11): 6.25 µg/mL (≈ 17.2 µM); CC50 (in vitro [13]): 27 µM; MIC (S. aureus ATCC 29213 [14]): 6.25 µg/mL (≈ 17.2 µM); MIC (S. aureus ATCC 25923 [15]): 6.25 µg/mL (≈ 17.2 µM); MIC [16]: 12.5 µg/mL (≈ 34.3 µM); zone of inhibition at 400 µg/disc (B. cereus ATCC 11778 [17]): 15 mm
